# Assay results published in patent US11001563B2, “SSAO inhibitor” (SHANDONG DANHONG PHARMACEUTICAL CO., LTD., priority 2017, dated 2021).
# What was measured:
# [1] = Distribution of compounds in liver and blood of CD-1 mice; type: in vivo; details: single oral dose
# Experimental: Experimental purpose: distribution of compounds in liver and blood of CD-1 mice was tested;
# CD-1 Mice (male, 25-35 g, 6-9 weeks old, Shanghai Slack);
# Experimental procedure: after oral administration, the drug was distributed in the liver and blood of rodents, candidate compounds in the experiment were formulated into a clear solution to be administered to mice in a single oral dose. The oral solvent was a certain proportion of an aqueous solution of hydroxypropyl P-cyclodextrin or a physiological saline solution. The concentration of the drug in the liver and blood was measured at 1 hour and 4 hours after administration.
# CYP2C19 = CYP2C19 (Homo sapiens (Human), UniProt P33261); assay: Human liver microsomal CYP inhibition assay; type: in vitro ADME; details: human liver microsomes, 5-in-1 probe substrate
# Sequence of CYP2C19 (P33261 whole entry): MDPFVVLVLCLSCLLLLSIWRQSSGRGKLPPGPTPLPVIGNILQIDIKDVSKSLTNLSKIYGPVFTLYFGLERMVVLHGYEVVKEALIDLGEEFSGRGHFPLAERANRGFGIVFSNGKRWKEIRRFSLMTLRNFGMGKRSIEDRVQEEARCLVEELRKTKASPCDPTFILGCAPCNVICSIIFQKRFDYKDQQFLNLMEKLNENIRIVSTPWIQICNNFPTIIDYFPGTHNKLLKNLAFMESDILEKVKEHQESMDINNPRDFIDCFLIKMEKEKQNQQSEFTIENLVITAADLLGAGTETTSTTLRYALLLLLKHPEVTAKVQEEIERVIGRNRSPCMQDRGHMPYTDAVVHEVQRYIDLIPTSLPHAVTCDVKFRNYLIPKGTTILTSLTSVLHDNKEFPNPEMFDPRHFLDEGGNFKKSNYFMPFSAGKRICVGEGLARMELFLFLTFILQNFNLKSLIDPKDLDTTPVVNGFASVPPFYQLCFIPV
# Experimental: (§1) The purpose of the study was to evaluate the inhibition of the test sample on human liver microsomal cytochrome P450 isozymes (CYP1A2, CYP2C9, CYP2C19, CYP2D6, and CYP3A4) by using the CYP isozyme 5-in-1 probe substrate.
# (§2) Mixed human liver microsomes (HLM) were purchased from Corning Inc. (Steuben, N.Y., USA) or XenoTech, LLC. (Lenexa, Kans., USA) or other suppliers, and stored at the temperature below −70° C. prior to use.
# (§3) A series of diluted test sample working solution were added to an incubation system containing cofactors of human liver microsomes, a probe substrate and a circulation system, and the control without a test substance but containing a solvent was used as enzyme activity control (100%). The concentration of the metabolite produced by the probe sample in the sample was determined by liquid chromatography-tandem mass spectrometry (LC-MS/MS). Non-linear regression analysis was performed on the concentration of the average percent activity of the test sample by using SigmaPlot (V.11). The IC50 value was calculated by a three-parameter or four-parameter recursive logarithmic equation.
# CYP1A2 = CYP1A2 (Homo sapiens (Human), UniProt P05177); assay: Human liver microsomal CYP inhibition assay; type: in vitro ADME; details: human liver microsomes, 5-in-1 probe substrate
# Sequence of CYP1A2 (P05177 whole entry): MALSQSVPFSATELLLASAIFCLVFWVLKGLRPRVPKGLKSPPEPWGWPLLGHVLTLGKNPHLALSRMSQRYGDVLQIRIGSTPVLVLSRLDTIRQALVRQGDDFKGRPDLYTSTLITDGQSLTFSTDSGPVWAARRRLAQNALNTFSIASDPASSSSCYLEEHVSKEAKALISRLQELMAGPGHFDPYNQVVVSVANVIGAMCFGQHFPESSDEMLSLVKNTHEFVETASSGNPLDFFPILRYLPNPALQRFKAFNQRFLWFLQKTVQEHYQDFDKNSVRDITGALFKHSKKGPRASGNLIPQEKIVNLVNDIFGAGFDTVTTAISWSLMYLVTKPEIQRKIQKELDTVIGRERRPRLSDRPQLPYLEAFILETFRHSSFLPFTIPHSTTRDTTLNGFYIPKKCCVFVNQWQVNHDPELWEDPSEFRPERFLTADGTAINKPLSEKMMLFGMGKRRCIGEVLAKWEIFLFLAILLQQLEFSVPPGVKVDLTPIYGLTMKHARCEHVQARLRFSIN
# Experimental: as §1, §2, §3
# CYP3A4 = CYP3A4 (Homo sapiens (Human), UniProt P08684); assay: Human liver microsomal CYP inhibition assay; type: in vitro ADME; details: human liver microsomes, 5-in-1 probe substrate
# Sequence of CYP3A4 (P08684 whole entry): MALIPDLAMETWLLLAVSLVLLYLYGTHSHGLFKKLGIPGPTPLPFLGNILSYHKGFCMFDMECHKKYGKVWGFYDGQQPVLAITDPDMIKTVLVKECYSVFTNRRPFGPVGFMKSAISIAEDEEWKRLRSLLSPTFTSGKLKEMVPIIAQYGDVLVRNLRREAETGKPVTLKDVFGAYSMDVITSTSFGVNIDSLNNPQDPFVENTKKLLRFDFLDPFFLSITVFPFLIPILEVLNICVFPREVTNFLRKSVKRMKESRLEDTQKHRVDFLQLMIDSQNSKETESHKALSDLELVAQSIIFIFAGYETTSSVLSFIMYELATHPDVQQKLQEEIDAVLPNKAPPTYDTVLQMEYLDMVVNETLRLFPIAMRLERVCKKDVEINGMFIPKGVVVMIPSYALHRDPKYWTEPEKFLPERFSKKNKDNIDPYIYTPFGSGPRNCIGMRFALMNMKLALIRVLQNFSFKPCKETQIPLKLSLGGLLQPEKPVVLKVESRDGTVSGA
# Experimental: as §1, §2, §3
# CYP2D6 = CYP2D6 (Homo sapiens (Human), UniProt P10635); assay: Human liver microsomal CYP inhibition assay; type: in vitro ADME; details: human liver microsomes, 5-in-1 probe substrate
# Sequence of CYP2D6 (P10635 whole entry): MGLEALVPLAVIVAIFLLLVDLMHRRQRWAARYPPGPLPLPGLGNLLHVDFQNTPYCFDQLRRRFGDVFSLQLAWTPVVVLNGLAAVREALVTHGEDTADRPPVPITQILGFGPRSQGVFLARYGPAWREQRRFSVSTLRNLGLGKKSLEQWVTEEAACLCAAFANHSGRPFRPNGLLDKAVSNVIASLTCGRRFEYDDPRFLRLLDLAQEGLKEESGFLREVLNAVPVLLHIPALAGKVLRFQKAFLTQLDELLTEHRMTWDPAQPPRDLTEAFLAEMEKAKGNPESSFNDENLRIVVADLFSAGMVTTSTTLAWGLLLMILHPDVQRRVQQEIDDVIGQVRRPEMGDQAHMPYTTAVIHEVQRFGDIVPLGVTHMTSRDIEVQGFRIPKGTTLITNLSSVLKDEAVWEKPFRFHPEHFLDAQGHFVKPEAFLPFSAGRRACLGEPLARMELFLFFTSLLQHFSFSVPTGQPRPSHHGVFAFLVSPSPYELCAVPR
# Experimental: as §1, §2, §3
# CYP2C9 = CYP2C9 (Homo sapiens (Human), UniProt P11712); assay: Human liver microsomal CYP inhibition assay; type: in vitro ADME; details: human liver microsomes, 5-in-1 probe substrate
# Sequence of CYP2C9 (P11712 whole entry): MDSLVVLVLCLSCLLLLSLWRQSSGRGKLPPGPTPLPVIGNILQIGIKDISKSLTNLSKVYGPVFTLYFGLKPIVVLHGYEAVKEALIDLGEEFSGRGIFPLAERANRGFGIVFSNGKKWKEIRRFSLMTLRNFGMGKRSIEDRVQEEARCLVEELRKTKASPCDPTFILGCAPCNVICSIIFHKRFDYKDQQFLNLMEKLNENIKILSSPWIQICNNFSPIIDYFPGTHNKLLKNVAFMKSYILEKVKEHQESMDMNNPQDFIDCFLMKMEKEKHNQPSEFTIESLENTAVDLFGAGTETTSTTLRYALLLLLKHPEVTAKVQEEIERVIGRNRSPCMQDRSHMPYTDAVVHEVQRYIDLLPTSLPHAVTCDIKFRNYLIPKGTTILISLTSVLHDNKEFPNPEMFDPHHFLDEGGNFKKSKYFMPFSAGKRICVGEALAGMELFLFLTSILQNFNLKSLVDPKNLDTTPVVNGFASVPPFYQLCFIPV
# Experimental: as §1, §2, §3
# hERG potassium channel = hERG potassium channel (Homo sapiens (Human), UniProt Q12809); assay: Inhibition test of hERG potassium ion channel (automatic patch clamp, CHO-hERG cells); type: cell-based
# Sequence of hERG potassium channel (Q12809 whole entry): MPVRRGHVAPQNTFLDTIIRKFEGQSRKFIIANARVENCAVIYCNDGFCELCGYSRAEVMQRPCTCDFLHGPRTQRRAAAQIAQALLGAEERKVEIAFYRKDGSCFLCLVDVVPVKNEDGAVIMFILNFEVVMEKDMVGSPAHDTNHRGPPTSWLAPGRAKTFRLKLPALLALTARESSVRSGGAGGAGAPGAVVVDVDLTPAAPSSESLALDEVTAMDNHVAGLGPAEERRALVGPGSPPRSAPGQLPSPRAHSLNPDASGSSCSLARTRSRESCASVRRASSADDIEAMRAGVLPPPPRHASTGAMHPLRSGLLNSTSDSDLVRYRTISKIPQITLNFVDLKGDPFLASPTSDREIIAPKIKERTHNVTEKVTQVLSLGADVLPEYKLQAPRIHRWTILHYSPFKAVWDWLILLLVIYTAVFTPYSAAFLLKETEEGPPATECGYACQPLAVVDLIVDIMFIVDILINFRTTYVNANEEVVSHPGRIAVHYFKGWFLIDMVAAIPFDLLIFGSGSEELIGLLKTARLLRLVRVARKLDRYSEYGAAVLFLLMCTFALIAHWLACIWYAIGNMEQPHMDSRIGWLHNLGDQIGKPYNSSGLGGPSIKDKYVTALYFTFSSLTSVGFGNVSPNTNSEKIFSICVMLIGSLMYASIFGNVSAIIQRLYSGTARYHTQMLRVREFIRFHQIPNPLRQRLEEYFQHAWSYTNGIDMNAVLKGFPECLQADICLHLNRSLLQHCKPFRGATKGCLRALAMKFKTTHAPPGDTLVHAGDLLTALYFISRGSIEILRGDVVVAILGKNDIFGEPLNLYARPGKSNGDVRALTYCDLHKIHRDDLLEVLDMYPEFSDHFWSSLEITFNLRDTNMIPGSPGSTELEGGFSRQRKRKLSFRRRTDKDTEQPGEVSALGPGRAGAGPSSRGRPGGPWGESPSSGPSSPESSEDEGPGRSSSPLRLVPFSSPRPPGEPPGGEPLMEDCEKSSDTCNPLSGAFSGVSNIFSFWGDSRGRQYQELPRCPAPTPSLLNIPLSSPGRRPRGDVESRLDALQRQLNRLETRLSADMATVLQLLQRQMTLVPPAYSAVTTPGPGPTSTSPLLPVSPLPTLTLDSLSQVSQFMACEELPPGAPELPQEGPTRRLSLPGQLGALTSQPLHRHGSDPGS
# Experimental: The effect of the to-be-tested compound on the potassium ion channel of hERG was detected by a fully automatic patch clamp method.
# The cells stably expressing hERG potassium channel used in the experiment were obtained from CHO-hERE of Aviva Biosciences, and CHO-hERG was cultured in 5% CO2 at 37° C.
# CHO-hERG cells prepared for the experiment were cultured for at least two days, and the cell density reached 75% or more. Prior to the start of the experiment, cells were digested with TrypLE and then resuspended in extracellular fluid to collect the cells.
# The to-be-tested compound and the positive control Amitriptyline were dissolved in DMSO to a certain concentration of the stock solution, and then diluted according to different gradients, and finally added to the extracellular fluid in a certain ratio, and diluted to a concentration to be measured. Visual inspection was performed to see if there was any precipitation before the start of the experiment. Finally, the concentration of DMSO in the to-be-tested solution and the positive control Amitriptyline should not exceed 0.3%.
# The clamping potential was kept at −80 mv, first a voltage stimulation of −50 mv was given for 80 ms to record the cell leakage current value, and then was depolarized to +20 mv to be maintained for 4800 ms, the channel of hERG was open, and then repolarized to −50 mv to be maintained 5000 ms, hERG tail current was led out and recorded, and finally, the voltage was returned to the clamping potential of −80 mv to be maintained for 3100 ms. The above voltage stimulation was repeated once every 15000 ms.
# hERG QPatch^HTX experiment was performed at room temperature. A whole cell protocol, a voltage stimulation protocol and a compound detection protocol were established on the software of QPatch Assay Software 5.2 (Sophion Bioscience).
# First, 30 repeated set voltage stimulations were performed, which was the baseline area for subsequent analysis, followed by the addition of 5 μl of extracellular fluid, repeated for three times. The concentration of each compound added in sequence was repeated three times in a volume of 5 μl. The cells were incubated for at least 5 min at each test concentration. During the entire recording process, the indicators needed to meet the data analysis acceptance criteria. If the standard was not met, the cells would not be included in the analysis scope, and the compounds would be retested. The above recording process was automatically operated by Qpatch analysis software. […]
# In each complete current record, based on the percentage of peak current in the negative control, the percent inhibition of the concentration of each compound can be calculated. […]
# VAP-1/SSAO [2] = target: T1, VAP-1/SSAO (Homo sapiens (Human), UniProt Q16853); assay: Human VAP-1 enzyme activity assay (Amplex Red Monoamine Oxidase kit); type: biochemical; details: 10 nM VAP-1 enzyme, 30 min preincubation, benzylamine substrate; read-out: Human Recombinant VAP-1/SSAO Enzyme Inhibitory Activity IC50
# T1 sequence (Q16853 whole entry): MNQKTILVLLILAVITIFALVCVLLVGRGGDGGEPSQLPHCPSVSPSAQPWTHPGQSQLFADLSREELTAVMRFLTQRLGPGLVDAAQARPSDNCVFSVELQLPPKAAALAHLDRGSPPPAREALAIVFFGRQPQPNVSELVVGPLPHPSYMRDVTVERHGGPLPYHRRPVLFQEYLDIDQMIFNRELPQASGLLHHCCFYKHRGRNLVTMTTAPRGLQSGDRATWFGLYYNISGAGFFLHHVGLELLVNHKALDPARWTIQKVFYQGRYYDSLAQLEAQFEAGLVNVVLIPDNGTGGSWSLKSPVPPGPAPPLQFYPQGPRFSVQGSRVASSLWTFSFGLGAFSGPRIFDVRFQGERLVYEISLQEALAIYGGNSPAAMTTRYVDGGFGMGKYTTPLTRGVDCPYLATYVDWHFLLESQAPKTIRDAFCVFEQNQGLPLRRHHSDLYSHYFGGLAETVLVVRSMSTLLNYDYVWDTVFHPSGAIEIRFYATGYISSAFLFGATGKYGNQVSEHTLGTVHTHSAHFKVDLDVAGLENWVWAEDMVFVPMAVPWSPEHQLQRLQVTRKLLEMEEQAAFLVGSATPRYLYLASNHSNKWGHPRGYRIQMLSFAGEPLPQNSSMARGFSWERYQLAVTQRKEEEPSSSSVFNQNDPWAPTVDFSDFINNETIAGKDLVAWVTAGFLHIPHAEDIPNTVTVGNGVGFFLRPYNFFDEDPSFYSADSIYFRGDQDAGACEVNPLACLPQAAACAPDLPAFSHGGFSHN
# Experimental: Human VAP-1 enzyme activity assay:
# The inhibition of the sample on VAP-enzyme activity was measured by using an Amplex® Red Monoamine Oxidase kit (Invitrogen #A12214). 100 nL of the gradiently-diluted to-be-tested compound (solvent DMSO) was added to a 384-well plate. 25 μL of 10 nM VAP-1 enzyme solution was added and incubated for 30 minutes at room temperature. A substrate mixture of VAP-1 enzyme (200 μM Amplex Red, 1 U/mL HRP, 1 mM Benzylamine) was added and incubated for 60 minutes at room temperature. After the incubation, the fluorescent signal was read with a microplate reader Envision (excitation light wavelength 530-560 nm, emission light wavelength 590 nm). The fluorescence signal value after the background signal was removed was analyzed by Prism software, and the IC50 of the sample against the VAP-1 enzyme was calculated.
# VAP-1/SSAO [3] = target: T1, VAP-1/SSAO; assay: VAP-1 cell activity assay (HUVEC or CHO cells transfected with VAP-1/pCDNA (3.1) plasmid, Amplex Red); type: cell-based; details: HUVEC or CHO cells transfected with VAP-1 plasmid; read-out: VAP-1/SSAO Cellular Inhibitory Activity IC50
# Experimental: The inhibition of the sample on VAP-1 cell activity was measured by using an Amplex® Red Monoamine Oxidase kit (Invitrogen #A12214).
# The cultured HUVEC or CHO cells were plated into a 6-well plate at a density of 0.8 M/well, placed in a 37° C., 5% CO2 incubator for incubation for 24 hours, and then the cells was transferred with a Lipo2000 reagent and a VAP-1/pCDNA (3.1) plasmid, and liquid was changed for the cells after 5 hours (Lipo2000 was toxic to the cells); after 24 hours, the cells were digested and plated into 384-well plates with a density of 25 μl, 10000 cells/well, and liquid was replaced with medium without FBS for the cells after 6-7 hours, and the cell plates were incubated overnight at 37° C. in a 5% CO2 incubator.
# 1) Dilution of the compound: serial dilution in 4× gradient was carried out with 100% DMSO, 10 points were diluted, the starting concentration of the to-be-tested compound was 0.5 mM (final concentration was 1 μM); 100 nl of compound solution was transferred to a 384-well cell assay plate with ECHO. Negative control wells: 100 nl of DMSO; background control wells: 100 nl DMSO+25 μL medium.
# 2) The reaction was carried out in the dark at room temperature for 30 min.
# 3) Preparation of Amplex Red reagent+HRP+benzylamine substrate working solution: Amplex Red reagent+HRP+benzylamine substrate working solution (200 μM Amplex Red reagent+1 U/mL HRP+1 mM benzylamine): 45 μl of 20 mM Amplex Red reagent mother solution, 22.5 μl of 200 U/ml horseradish peroxidase (HRP) mother solution and 45 ul of 100 mM benzylamine were tanken and added to 4.3875 ml of 1× reaction buffer.
# 4) After 30 min, 25 μl of the substrate working solution was added to a 384-well plate, and a final concentration was 100 μM Amplex Red reagent+0.5 U/mL HRP+0.5 mM benzylamine, respectively.
# 5) The reaction was carried out in the dark at room temperature for 60 minutes, and the fluorescence value was measured by Envision: the excitation wave was 535 nm, and the emission wave was 590 nm.
# 6) Inhibition rate calculation formula: % inhibition rate=(1−(test hole minus background−positive control well minus background)/(negative control well minus background-positive control well minus background))*100
# 7) The data were analyzed with Prism. The IC50 of the sample against VAP-1 cells was calculated.
Liver Concentration ([1]; @1.0 hour),Liver Concentration/Plasma Concentration ratio ([1]; @1.0 hour),Plasma Concentration ([1]; @1.0 hour),Liver Concentration ([1]; @4.0 hour),Liver Concentration/Plasma Concentration ratio ([1]; @4.0 hour),Plasma Concentration ([1]; @4.0 hour),IC50 (CYP2C19) [µM],IC50 (CYP1A2) [µM],IC50 (CYP3A4) [µM],IC50 (CYP2D6) [µM],IC50 (CYP2C9) [µM],IC50 (VAP-1/SSAO [2]) [µM],IC50 (VAP-1/SSAO [3]) [µM],Structure (SMILES),"IC50 (hERG potassium channel; QPatch whole cell patch clamp, CHO-hERG, 0.24-30.00 μM) [µM]",Inhibition of hERG potassium current (in words) (hERG potassium channel; conclusion statement)
13140,10,1470,2120,14,154,76,9,> 50,38,32,,,"CC(C)(C)NC(=O)c1ccc(OC/C(=C/F)CN)cc1.Cl [PXS-4728A, reference compound]",,
,,,,,,,,,,,0.0004,0.0003,Cc1noc(-c2ccc(OC/C(=C/F)CN)cc2)n1.Cl [WX008],> 30,weak inhibition
,,,,,,,,,,,0.0007,0.0007,CCn1nc(C2(F)CC2)nc1-c1ccc(OC/C(=C/F)CN)cc1 [WX118],,
